How the values were obtained:
[1] = system: TNF-α secretion from h-PBMC's; assay: TNF-α release from h-PBMC's, ELISA; type: cell-based, human; conditions: for TNF-α secreted in the presence of 17c-21c: 24 hours, ± SD
Method: (§1) Authentic samples of agrimoniin and coriariin A were supplied by Professor Yoshida (Okayama University, Japan). Dimeric gallotannin (analog of coriariin A) and β-D-PGG were synthesized as described. LPS (E. coli 055:B5 phenol extract, MW range 50-100 KD). Ficoll-Histopaque (ρ=1.077 g/mL), Fetal Bovine Serum, sterile, hybridoma tested (FCS), gentamicin 10 mg/mL. L-glutamine, 200 mM. Dextran B-512 Leuconostoc Av M.W. 580000, and Trypan Blue stain were purchased from Sigma. Hanks Buffer Saline Solution 1×, with phenol red, mediatech (HBSS) and RPMI 1640 1×, mediatech were purchased from Fisher Scientific, Human IL-1β and TNF-α Enzyme Linked ImmunoSorbent Assay (ELISA) kits were purchased from R and D Systems, Minneapolis, Minn. Fresh heparinized blood was obtained from health human subjects (ages 20-34).
(§2) Dose-Response Data: General Procedure. H-PBMC's were isolated by reported procedures (10. 18). The cells counted and the viability was determined by Trypan Blue exclusion (typically, viability exceeded 95%). The concentration of the cells in the 0.5 mL wells was adjusted to 1×10^6 cells/well by diluting with the required amount of RPMI.
(§3) The appropriate amount of a tannin (or LPS) stock solution in HBSS was added to each well to furnish the concentration values reported in the Figures. […] The culture plates were incubated in a 5% CO2, 37° C. humidified incubator for the indicated time. At the end of the time interval, 450 μL of the culture supernatant from each well was harvested, after centrifugation at 400 g, 25° C., 10 min. with brake, and stored at −78° C. pending ELISA analysis for the cytokine(s). The ELISA assays were conducted per the manufacturer's instructions using standard calibration curves to calculate cytokine concentration from observed absorbance readings. The cytokine values reported are averages of three runs±SE.
(§4) The dimeric antitumor ellagitannins coriariin A and agrimoniin, the monomeric gallotannin β-D-pentagalloylglucose (β-D-PGG) and the dimeric gallotannin of this invention were all examined in this study. The dimeric gallotannin is an analog of coriariin A and is identical to the parent ellagitannin except that the galloyl rings at O(4) and O(6) are not joined in a hexahydroxydiphenoyl (HHDP) linkage. h-PBMC's were incubated with the compound under investigation for the indicated length of time and the amounts of both IL-1β and, independently, TNF-α, present in the culture supernatants was determined using commercially available ELISA kits. In each case, LPS was used as a positive control while untreated cells were reserved as negative controls.
In the first study, the induction of TNF-α secretion from h-PBMC's in the presence of each compound 17c-21c was measured. The h-PBMC's were incubated with each compound for 24 hours. The TNF-α levels in the cell culture supernatant were assayed by Enzyme Linked ImmunoSorbant Assay (ELISA). The data point for each assay represent the mean of triplicate measurements. […] (See FIG. 11).

sarcoma-180 tumors = conditions: mice infected with sarcoma-180 tumors; cited from earlier work
[2] = system: IL-1β secretion from h-PBMC's; assay: IL-1β release from h-PBMC's, ELISA; type: cell-based, human; conditions: h-PBMC's 2nd subject, ± SD
Method: as §1, §2, §3, §4
In the third study, compounds 17c-20c were examined for their ability to induce secretion of IL-1β from h-PBMC's (FIG. 16). Recall from the introduction that the cytokine IL-1β is also released in an LPS-stimulated septic shock response. The compounds that cause very little secretion of IL-1β or none at all will be the optimal compounds for potential septic shock therapeutics because they will be less likely themselves to induce a septic shock response.

[3] = system: LPS induced TNF-α secretion from h-PBMC's; assay: Inhibition of LPS induced TNF-α secretion from h-PBMC's; type: cell-based, human; conditions: LPS 5 μg/mL; for TNF-α secreted in the presence of LPS and 17c-20c: compound 10 μg/mL added after 45 minutes, h-PBMC's 3rd subject, ± SD
Method: In the second study, the ability of compounds 17c-20c to inhibit LPS induced TNF-α production in h-PBMC's was investigated using four assays. The first experiment was a kinetics run in which the h-PBMC's were initially incubated with a fixed concentration of LPS (5 μg/mL) for 45 minutes. This incubation period was followed by addition of a fixed concentration (10 μg/mL) of compounds 17c-20c. The cells were harvested at varying intervals of time. […] The optimal time was determined by comparing the amount of TNF-α secreted by LPS alone to the amount of TNF-α secreted by LPS and substrate at each time point.
The second assay determined the minimum amount of substrate required for inhibition. LPS (10 μg/mL) was incubated with h-PBMC's for 45 minutes followed by addition of 17c-20c at varying concentrations. The cell culture supernatant was harvested after 8 hours. The inherent variability in using cells from different subjects, or in the day of assay, made it difficult to compare overall effectiveness of inhibitors. Therefore, to more easily identify the concentration at which maximum inhibition occurs for a given compound, the TNF-α secretion was normalized by calculating a percent of maximum secretion value (based on LPS alone) (FIG. 13). […] The optimal concentration for inhibition varied between substrates, but the general dose response trend was the same. Overall, the maximum inhibition was 45% for 18c and 20c, and 25% for 19c.
The third assay investigated the ability of 17c, 18c, and 20c to inhibit LPS induced TNF-α secretion using a smaller dosage of LPS (5 μg/mL) (FIG. 14). Again, the response was dose dependent. The maximum inhibition was 45% for 17c and 20c, and 35% for 18c.
In the fourth assay the varying concentrations of substrates 17c-20c and LPS were added at the same time to determine the effect of addition sequence on the inhibition of TNF-α secretion (FIG. 15). The addition time seemed to make a difference in the overall dose response trend. However, maximum inhibition was the same as when the compounds were added 45 minutes after LPS addition (about 40% for each compound).
Finally, in the last study, analogs 19c and 20c were again tested for inhibition LPS induced TNF-α secretion (FIG. 17). In this assay a smaller dose of LPS was used to determine if inhibition was greater when much lower doses of LPS were present. The substrates were added 45 minutes after LPS addition and the cells were harvested after 8 hours. It doesn't appear as though the substrates are better inhibitors when smaller amounts of LPS are used, again perhaps reflecting receptor saturation with LPS at this dosage.

## 1,1′-2,2′,3,3′,4,4′,6,6′-Tetrakis(3,4,5-trihyroxybenzoyl)-β,β′-D,D′-glucopyranosyl-(2,3′-oxy-di-benzoate) [Compound 21c]
[1]
  TNF-α secretion from h-PBMC's, in words: significant amount of TNF-α secretion
[1]; compound 0.6 μM
  TNF-α secreted in the presence of 17c-21c: 140.7 ± 50.1 pg/mL
[1]; compound 2.8 μM
  TNF-α secreted in the presence of 17c-21c: 80.3 ± 38.1 pg/mL
[1]; compound 5.6 μM
  TNF-α secreted in the presence of 17c-21c: 61.9 ± 11.7 pg/mL
[1]; compound 11.2 μM
  TNF-α secreted in the presence of 17c-21c: 96.2 ± 8.9 pg/mL
[1]; compound 16.8 μM
  TNF-α secreted in the presence of 17c-21c: 379.3 ± 156.6 pg/mL
[1]; compound 22.3 μM
  TNF-α secreted in the presence of 17c-21c: 618.0 ± 182.0 pg/mL
[1]; compound 27.9 μM
  TNF-α secreted in the presence of 17c-21c: 899.0 ± 368.4 pg/mL

## O=C(OC1O[C@@H]2COC(=O)c3cc(O)c(O)c(O)c3-c3c(cc(O)c(O)c3O)C(=O)O[C@H]2[C@H](OC(=O)c2cc(O)c(O)c(O)c2)[C@H]1OC(=O)c1cc(O)c(O)c(O)c1)c1cc(O)c(O)c(O)c1 (stereo partly drawn) [Compound 2, tellimagrandin II]
sarcoma-180 tumors
  antitumor effect, in words: much less effective antitumor agents

## O=C(OC[C@H]1O[C@@H](OC(=O)c2ccc(C(=O)O[C@@H]3O[C@H](COC(=O)c4cc(O)c(O)c(O)c4)[C@@H](OC(=O)c4cc(O)c(O)c(O)c4)[C@H](OC(=O)c4cc(O)c(O)c(O)c4)[C@H]3OC(=O)c3cc(O)c(O)c(O)c3)cc2)[C@H](OC(=O)c2cc(O)c(O)c(O)c2)[C@@H](OC(=O)c2cc(O)c(O)c(O)c2)[C@@H]1OC(=O)c1cc(O)c(O)c(O)c1)c1cc(O)c(O)c(O)c1 [Compound 17c, 1,1′-O-2,2′,3,3′,4,4′,6,6′-Tetrakis(3,4,5-trihydroxybenzoyl)-β,β′-D,D′-glucopyranosylterephthalate]
[2]; compound 0.6 μM
  IL-1β secreted in the presence of 17c-20c: 0 pg/mL
[2]; compound 2.9 μM
  IL-1β secreted in the presence of 17c-20c: 0 pg/mL
[2]; compound 5.9 μM
  IL-1β secreted in the presence of 17c-20c: 3.2 ± 3.6 pg/mL
[2]; compound 11.8 μM
  IL-1β secreted in the presence of 17c-20c: 329.7 ± 443.0 pg/mL
[2]; compound 17.6 μM
  IL-1β secreted in the presence of 17c-20c: 140.5 ± 195.6 pg/mL
[2]; compound 23.5 μM
  IL-1β secreted in the presence of 17c-20c: 630.6 ± 283.1 pg/mL
[2]; compound 29.4 μM
  IL-1β secreted in the presence of 17c-20c: 690.1 ± 101.0 pg/mL
[1]; compound 0.6 μM
  TNF-α secreted in the presence of 17c-21c: 0 pg/mL
[1]; compound 2.9 μM
  TNF-α secreted in the presence of 17c-21c: 0 pg/mL
[1]; compound 5.9 μM
  TNF-α secreted in the presence of 17c-21c: 0 pg/mL
[1]; compound 11.8 μM
  TNF-α secreted in the presence of 17c-21c: 0.26 ± 0.37 pg/mL
[1]; compound 17.6 μM
  TNF-α secreted in the presence of 17c-21c: 0 pg/mL
[1]; compound 23.5 μM
  TNF-α secreted in the presence of 17c-21c: 0.26 ± 0.37 pg/mL
[1]; compound 29.4 μM
  TNF-α secreted in the presence of 17c-21c: 2.5 ± 3.5 pg/mL
[3]; time 1 h
  TNF-α secreted in the presence of LPS and 17c-20c: 511.2 ± 288.3 pg/mL
[3]; time 4 h
  TNF-α secreted in the presence of LPS and 17c-20c: 1896.3 ± 140.9 pg/mL
[3]; time 8 h
  TNF-α secreted in the presence of LPS and 17c-20c: 2477.0 ± 148.2 pg/mL
[3]; time 12 h
  TNF-α secreted in the presence of LPS and 17c-20c: 2574.4 ± 459.9 pg/mL
[3]; time 16 h
  TNF-α secreted in the presence of LPS and 17c-20c: 1811.6 ± 352.9 pg/mL
[3]; time 24 h
  TNF-α secreted in the presence of LPS and 17c-20c: 2266.1 ± 353.3 pg/mL
[3]; 3rd subject
  maximum inhibition of LPS induced TNF-α secretion: 45%

## O=C1OC[C@H]2OC(O)[C@@H]3OC(=O)c4cc(O)c(O)c(O)c4-c4c(cc(O)c(O)c4O)C(=O)O[C@H]3[C@@H]2OC(=O)c2cc(O)c(O)c(O)c2-c2c1cc(O)c(O)c2O (stereo partly drawn) [pedunculagin]
sarcoma-180 tumors
  antitumor effect, in words: much less effective antitumor agents

## O=C(O[C@H]1[C@@H]2OC(=O)c3cc(O)c(O)c(O)c3-c3c(cc(O)c(O)c3O)C(=O)OC[C@H]2OC(O)[C@@H]1OC(=O)c1cc(O)c(O)c(O)c1)c1cc(O)c(O)c(O)c1 (stereo partly drawn) [tellimagrandin I]
sarcoma-180 tumors
  antitumor effect, in words: much less effective antitumor agents

## gemin A
sarcoma-180 tumors
  antitumor effect, in words: induce tumor regression

From US7288273B1, “Gallotannins and ellagitannins as regulators of cytokine release” (The Penn State Research Foundation, priority 2000, dated 2007)
